{
  "source": "patent US20070003531A1",
  "about": "“Methods for improving immunotherapy by enhancing survival of antigen-specific cytotoxic T lymphocytes” (University of Connecticut, priority 2005, published 2007)",
  "key": {"[1]": {"tested_on": "c-jun phosphorylation/activation in Jurkat T cells", "assay": "JNK activation assay in PMA/ionomycin stimulated Jurkat cells", "assay_type": "cell-based, human", "conditions": "PMA (10 ng/ml)/ionomycin (0.5 μM); SP600125 25 μM", "procedure": "FIG. 1. […] (A) Effect of the JNK inhibitor SP600125 on AICD in the MART-127-35 epitope specific CTL. Histogram represents FACS analysis of the percent of MART-127-35 epitope specific CTLs that were tetramer positive and annexin negative after restimulation with MAGE-3271-279 control peptide (M3) pulsed T2 cells or MART-127-35 peptide (M1) pulsed T2 cells either alone or re-stimulated after pre-incubation with JNK inhibitor SP600125, p38-kinase inhibitor SB203580, ERK1/2 inhibitor PD98059 or caspase-inhibitor z-VAD-fink. MAGE-3271-279. (B) JNK activation results in phosphorylation of c-Jun during AICD in CTL that is blocked by SP600125. Immunoblots show analyses of CTL extracts probed with anti-phosphor-c-Jun, anti-c-Jun, and anti-actin antibodies. […] (i) Jurkat cells were treated with PMA+ionomycin in the absence or presence of SP600125 and JNK activation (c-Jun phosphorylation) was assessed with anti-phospho-c-Jun antibody. […] (ii) Jurkat cells were treated with Staurosporine for 1 and 4 hrs in the absence (S) or presence of caspase inhibitor, z-VAD-fmk (CI), JNK inhibitor, SP600125 (SP) or ERK1/2 inhibitor PD98059 (PD) and cleavage of PARP was detected by immunoblotting, using actin as a loading control. […] Percent annexin positive cells in all samples were quantified by FACS analysis and shown below the blot […]"}, "c-jun N-terminal kinase": {"molecular_target": "c-jun N-terminal kinase", "conditions": "cited from earlier work"}, "[2]": {"tested_on": "c-Jun phosphorylation (JNK activation) in CTL", "assay": "c-Jun phosphorylation in CTL during AICD (immunoblot)", "assay_type": "cell-based, human", "conditions": "CTL re-stimulated with Mart-127-35 peptide after pre-incubation", "procedure": "FIG. 1. […] (A) Effect of the JNK inhibitor SP600125 on AICD in the MART-127-35 epitope specific CTL. Histogram represents FACS analysis of the percent of MART-127-35 epitope specific CTLs that were tetramer positive and annexin negative after restimulation with MAGE-3271-279 control peptide (M3) pulsed T2 cells or MART-127-35 peptide (M1) pulsed T2 cells either alone or re-stimulated after pre-incubation with JNK inhibitor SP600125, p38-kinase inhibitor SB203580, ERK1/2 inhibitor PD98059 or caspase-inhibitor z-VAD-fink. MAGE-3271-279. (B) JNK activation results in phosphorylation of c-Jun during AICD in CTL that is blocked by SP600125. […] (i) Jurkat cells were treated with PMA+ionomycin in the absence or presence of SP600125 and JNK activation (c-Jun phosphorylation) was assessed with anti-phospho-c-Jun antibody. […] (ii) Jurkat cells were treated with Staurosporine for 1 and 4 hrs in the absence (S) or presence of caspase inhibitor, z-VAD-fmk (CI), JNK inhibitor, SP600125 (SP) or ERK1/2 inhibitor PD98059 (PD) and cleavage of PARP was detected by immunoblotting, using actin as a loading control. […] Percent annexin positive cells in all samples were quantified by FACS analysis and shown below the blot\nImmunoblot analysis. […] Proteins bound to the resin were washed three times with RIPA buffer, re-suspended in sample buffer, and analyzed by SDS-PAGE and immunoblotting."}, "[3]": {"tested_on": "MART-127-35 tetramer+/CD8+ CTLs", "assay": "Survival of antigen specific CTLs five days after secondary encounter of the epitope", "assay_type": "cell-based, human", "conditions": "day five in IL-15 after overnight co-culture with cognate epitope; inhibitor 25 μM then washed off", "procedure": "FIG. 13. Survival of the antigen specific CTLs following secondary encounter of the epitope in the presence of anthra[1,9-cd]pyrazol-6(2H)-one (SP600125) and recovery of function in the pyrazoloanthrone rescued CTLs. Effector cells were co-cultured with peptide pulsed T2 cells in the presence or absence of the kinase inhibitors (25 μM). The cultures were washed about 18 h later and then recultured in IL-15 containing medium. On day five, the numbers of the viable antigen specific CTLs were determined. […] The number (11%) of MART-127-35 tetramer^+/CD8^+ population exposed to MART-127-35 peptide pulsed T2 cells (T2/M1) is a reflection of loss of epitope specific CTLs from AICD. […] (B) IFN-γ response by the recovered populations (M3=MAGE-3271-279, M1=MART-127-35).\nFinally, the functional status of SP600125 rescued CTLs upon continuous culture was examined. After overnight exposure of the CTLs to the cognate epitope in the presence or absence of SP600125, the CTLs were washed and then maintained in continuous culture in IL-15 containing CM without the inhibitor. Five days after, the number of viable MART-127-35 tetramer positive cells were determined and their function was tested in the IFN-γ response assay. […] Remarkably, the rescued CTLs regained their capacity to synthesize IFN-γ (FIG. 13B)."}},
  "note": "Entries after “also recorded” stand apart in the source; their conditions may differ.",
  "data": [
    {"compound": "O=C1c2ccccc2-c2n[nH]c3cccc1c23", "note": "[SP600125, anthra[1,9-cd]pyrazol-6(2H)-one]", "values": [
      {"measurement": "c-Jun activation (phosphorylation) in Jurkat cells", "setting": "[1]", "value": "inhibitory effect; also recorded: abrogates"},
      {"measurement": "Ki", "setting": "c-jun N-terminal kinase", "value": "~190", "unit": "nM"},
      {"measurement": "c-Jun activation (phosphorylation) in CTL during AICD", "setting": "[2]", "value": "blocked"},
      {"measurement": "fraction of starting epitope specific population recovered", "setting": "[3]", "value": "larger fraction"}
    ]}
  ]
}
